Results from BindingDB's records for doi:10.1016/j.chembiol.2014.09.011 (Astrazeneca R&D, 2014).

Molecular target: T1, AMP deaminase 2 (Homo sapiens, UniProt Q01433)
T1 sequence (Q01433 whole entry): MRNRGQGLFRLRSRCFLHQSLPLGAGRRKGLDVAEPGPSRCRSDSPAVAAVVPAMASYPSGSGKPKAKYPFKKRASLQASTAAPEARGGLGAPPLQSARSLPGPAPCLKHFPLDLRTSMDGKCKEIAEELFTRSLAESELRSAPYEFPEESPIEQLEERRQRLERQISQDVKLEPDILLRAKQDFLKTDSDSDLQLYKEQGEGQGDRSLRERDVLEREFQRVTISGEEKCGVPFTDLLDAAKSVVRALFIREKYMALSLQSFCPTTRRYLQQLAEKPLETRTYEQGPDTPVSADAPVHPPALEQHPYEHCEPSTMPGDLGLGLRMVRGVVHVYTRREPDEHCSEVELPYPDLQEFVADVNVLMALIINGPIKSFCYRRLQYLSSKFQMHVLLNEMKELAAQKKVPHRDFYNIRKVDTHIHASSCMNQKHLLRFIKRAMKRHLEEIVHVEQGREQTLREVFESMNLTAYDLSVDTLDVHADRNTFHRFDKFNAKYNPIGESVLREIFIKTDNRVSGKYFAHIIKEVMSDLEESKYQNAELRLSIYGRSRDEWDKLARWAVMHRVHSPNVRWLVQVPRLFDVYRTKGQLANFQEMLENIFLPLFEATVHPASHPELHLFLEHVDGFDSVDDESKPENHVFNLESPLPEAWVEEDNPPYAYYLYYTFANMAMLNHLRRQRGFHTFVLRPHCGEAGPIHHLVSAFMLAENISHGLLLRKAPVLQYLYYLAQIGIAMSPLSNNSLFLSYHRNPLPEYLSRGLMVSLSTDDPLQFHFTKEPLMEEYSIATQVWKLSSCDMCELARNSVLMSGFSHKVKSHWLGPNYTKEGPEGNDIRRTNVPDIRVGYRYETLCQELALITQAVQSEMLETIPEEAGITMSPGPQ
Experiment: AMPD Enzymatic Activity Assay
Conditions: pH 7.4

IC50 [µM]	Structure (SMILES)
32	C[C@@H](NCc1ccc(-c2ccc(C(=O)O)cn2)cc1)c1cccc2ccncc12 [6-[4-({[(1R)-1-(isoquinolin-8-yl)ethyl]amino}methyl)phenyl]pyridine-3-carboxylic acid (Compound 2)]
0.016	C[C@H](NCc1ccc(-c2ccc(C(=O)O)cn2)cc1)c1cccc2ccncc12 [6-[4-({[(1S)-1-(isoquinolin-8-yl)ethyl]amino}methyl)phenyl]pyridine-3-carboxylic acid (Compound 3)]
